In patent publication US7635693B2, “Methods for preventing and treating cancer using N-thiolated β-lactam compounds and analogs thereof” (University of South Florida, priority 2002, dated 2009):
Values joined by “and” are separate entries in the source; they are usually repeats but may differ in a detail not shown here. Identical values can stand only once. Like-named read-outs stand apart in the source and are kept apart here.

Experiments:
Jurkat T cells [1] = details: 50 μM, cited from earlier work
Jurkat T cells [2] = assay: Flow cytometry cell cycle distribution and sub-G1 population, Jurkat T cells; assay type: cell-based, human; details: 50 μM
Description: Cell Death Differ 5:1062-75. At each time point, cells are harvested, counted, and washed twice with PBS. Cells (5×10^6) are suspended in 0.5 ml PBS, fixed in 5 ml of 70% ethanol for at least 2 h at −20° C., centrifuged, resuspended again in 1 ml of propidium iodide staining solution (50 μg propidium iodide, 100 units RNase A and 1 mg glucose per ml PBS), and incubated at room temperature for 30 minutes. The cells are then analyzed with FACScan (Becton Dickinson Immunocytometry, CA), ModFit LT and WinMDI V.2.8 cell cycle analysis software (Verity Software; Topsham, Me.). The cell cycle distribution is shown as the percentage of cells containing G1, S, G2, and M DNA judged by propidium iodide staining. The apoptotic population is determined as the percentage of cells with sub-G1 (<G1) DNA content.

PARP = PARP cleavage, Western blot, Jurkat T cells; assay type: cell-based, human
Source text: A library of β-lactam analogs was screened for their ability to induce apoptosis. […] This is followed by preparation of cell lysates and measurement of apoptosis-specific caspase-3 activation (by cell-free caspase-3 activity assay) and PARP cleavage (by Western blotting).

caspase-3 [3] = details: 50 μM, up to 48 hours
Description: (§1) (FIG. 19A) MTT assay. (FIG. 19B) Cell-free caspase-9 activity assay. A protein extract (20 μg) is incubated with 20 μM Ac-LEHD-AFC (the specific caspase-9 substrate) in a 96-well plate at 37° C. for 2 h. After incubation, the liberated florescent AFC groups are measured by Wallac Victor 1420 Multilabel counter with 405/535 nm filters. […] Both intact and active forms of caspase-3 are indicated. […] Both detached and attached populations of Va-13 or WI-38 cells are collected, and used for nuclear staining assay with DNA staining dye Hoechst 33342.

caspase-9 = details: 50 μM, up to 48 hours
Description: as §1

PCI-13 cells = details: PCI-13, 50 μM, 48 hour
Description: (§2) To assay nuclear morphology, both the detached or remaining attached solid tumor cells were washed with PBS, fixed with 70% ethanol for 1 hour, and stained with Hoechst 33342 (50 μM) for 30 minutes. The nuclear morphology of cells was visualized by a fluorescence microscope.
(§3) Both attached and detached cell populations were then used for detection of apoptotic nuclear changes.

MDA-MB-231 cells [4] = details: MDA-MB-231, 50 μM, 48 hour
Description: as §2, §3

MCF-7 cells [5] = details: MCF-7, 50 μM, 24 hour
Description: as §2, §3

PC-3 cells = details: PC-3, 50 μM, 48 hour
Description: as §2, §3

caspase-3 [6] = assay: Cell-free caspase-3 activity assay on extracts of treated Jurkat T cells; assay type: cell-based, human
Description: Briefly, a prepared protein extract (20 μg) is incubated in a buffer containing 50 mM Tris/pH 8.0 along with each respective caspase substrate at 20 μM in a 96 well plate. The reaction mixture is incubated at 37° C. for 2 h.
A library of β-lactam analogs was screened for their ability to induce apoptosis. The screening procedure is accomplished by treating human Jurkat T cells with each compound at 50 μM for 8 hours. This is followed by preparation of cell lysates and measurement of apoptosis-specific caspase-3 activation (by cell-free caspase-3 activity assay) and PARP cleavage (by Western blotting).

caspase-3 [7] = details: LNCaP cells, 48 h, 50 μM
Description: To measure cell-free caspase-3 activity, whole cell extracts (20-30 μg) from untreated or treated LNCaP cells were incubated with 20 μM of the fluorogenic substrate caspase-3/caspase-7 (Ac-DEVD-AMC) for 30 min at 37° C. in 100 μl of assay buffer (50 mM Tris, pH 8.0).

MCF-7 cells [8] = assay: MTT assay, MCF-7; assay type: cell-based, human; details: MCF-7, 50 μM, 24 hours
Description: (§4) MCF-7, MDA-MB-231, PC-3 and PCI-13 cells were grown to 50% confluency in a 24 well plate. […] A stock 5 mg/ml of MTT in serum-free media was then added to the cell cultures at a final concentration of 1 mg/ml, followed by a 3 hour incubation at 37° C. After cells crystallized, the media was removed and DMSO added to dissolve the metabolized MTT product. The absorbance was then measured on a Wallac Victor 1420 Multilabel counter at […].

MDA-MB-231 cells [9] = assay: MTT assay, MDA-MB-231; assay type: cell-based, human; details: MDA-MB-231, 50 μM, 24 hours
Description: as §4

Jurkat T cells [10] = assay type: cell-based, human; details: for loss of membrane permeability (trypan blue incorporation): 8 hours
Description: The trypan blue exclusion assay was performed by injecting 10 μl of cell suspension containing 0.2% trypan blue dye into a hemoicytometer and counting. Numbers of cells that absorbed the dye and those that excluded the dye are counted, from which the percentage of non-viable cell number to total cell number is calculated.

COC1C(=O)N(SC)C1c1ccccc1Cl (racemic) [lactam 1]
sub-G1 population (Jurkat T cells [1]; 12 h (Smith et al., 2002)): 10% | sub-G1 population (Jurkat T cells [1]; 24 h (Smith et al., 2002)): 16% | apoptotic sub-G1 cell population (Jurkat T cells [2]; 2 to 4 hours): 2% | increase in S phase population (Jurkat T cells [2]; 2 to 4 hours): 2-3% | increase in S phase population (Jurkat T cells [2]; 6 to 12 hours): up to 13% | sub-G1 population (Jurkat T cells [2]; 6 to 12 hours): 5-16% | increase in S phase population (Jurkat T cells [2]; 5 hours): 21% | sub-G1 apoptotic population (Jurkat T cells [2]; 5 hours): 14% | sub-G1 population (Jurkat T cells [2]; 24 h): 30% | increase in S population (Jurkat T cells [2]; 24 hour): 20% | PARP cleavage (PARP; 10 μM, 24 h): induced apoptosis-specific PARP cleavage fragment p85 | levels of PARP cleavage fragment p85 (PARP; 25 μM, 24 h): further increased | time at which PARP cleavage was first detected (PARP; 30 μM): 3 h | time at which PARP cleavage fragment p85 appears (PARP; 50 μM): 4 h | PARP cleavage (PARP; 50 μM, 8 hours): greatest potency | level of PARP cleavage relative to that by 50 μM of lactam 47 (PARP; 50 μM, 12 h): ~50% | PARP degradation (PARP; 50 μM, 24 h): PARP degradation was further increased | p85 PARP fragment (PARP; 8 hours, 20 μM): Low levels | p85 PARP fragment (PARP; 8 hours, 50 μM): significantly increased | intact PARP protein and p85 PARP fragment (PARP; 8 hours, 60 μM): almost complete degradation | p85 PARP fragment (PARP; 8 hours, 30 and 40 μM): further increased | processing and activation of caspase-3 (caspase-3 [3]; VA-13 cells): detected only in the transformed, but not normal, human cells | processing and activation of caspase-3 (caspase-3 [3]; WI-38 cells): detected only in the transformed, but not normal, human cells | cell-free caspase-9 activity (caspase-9; VA-13 cells): activated cell-free caspase-9 activity | cell-free caspase-9 activity (caspase-9; WI-38 cells): no caspase-9 activation was detected | nuclear morphology of detached cells (Hoechst 33342) (PCI-13 cells): apoptosis-specific nuclear morphology | nuclear morphology of detached cells (Hoechst 33342) (MDA-MB-231 cells [4]): apoptosis-specific nuclear morphology | cells detached (MCF-7 cells [5]): ~50% | nuclear morphology of detached cells (Hoechst 33342) (MCF-7 cells [5]): typical apoptotic nuclear condensation and fragmentation | nuclear morphology of detached cells (Hoechst 33342) (PC-3 cells): apoptosis-specific nuclear morphology | time at which cell-free caspase-3 activity was first observed (caspase-3 [6]; 50 μM): 4 h | caspase-3 activation (caspase-3 [6]; 50 μM, 8 hours): greatest potency | increase of caspase-3 levels over untreated cells (caspase-3 [6]; 8 hours, 20 μM): 2 fold | increase of caspase-3 levels over untreated cells (caspase-3 [6]; 8 hours, 30 μM): 3 fold | increase of caspase-3 levels over untreated cells (caspase-3 [6]; 8 hours, 40 μM): 5 fold | increase of caspase-3 levels over untreated cells (caspase-3 [6]; 8 hours, 50 μM): 11 fold | increase in caspase-3 activity over control (caspase-3 [7]): 2.5 fold | decrease of cellular viability (MTT) (MCF-7 cells [8]): 80% | decrease of cellular viability (MTT) (MDA-MB-231 cells [9]): 80% | cell death (trypan blue) (Jurkat T cells [10]; 30 μM, 24 h): 42% | cell death (trypan blue) (Jurkat T cells [10]; 50 μM, 3 h): 11% | non-viable cell population (trypan blue) (Jurkat T cells [10]; 50 μM, 4 hours): 20% | trypan blue-positive cells (Jurkat T cells [10]; 50 μM, 6 h): 20% | non-viable cell population / cell death (trypan blue) (Jurkat T cells [10]; 50 μM, 24 h): 60% and ~52% and ~50% | loss of membrane permeability (trypan blue incorporation) (Jurkat T cells [10]; 50 μM): ~30% | loss of membrane permeability (trypan blue incorporation) (Jurkat T cells [10]; 60 μM): ~80% | loss of membrane permeability (trypan blue incorporation) (Jurkat T cells [10]; 20-40 μM): ~10%
